Counter-ions that a name gives are not always drawn.
Legend:
[1] = tested on: reserpine induced hypothermia; experiment: Antireserpine activity: antagonism of reserpine induced hypothermia (antidepressant activity); format: in vivo; conditions: for Antireserpine Activity in Mice, Relative Potency: relative to Amitriptyline = 1, i.p., reserpine 5 mg/kg i.p.
mice = conditions: i.p.
in vivo = conditions: mouse, ip
tremorine induced tremor = experiment: Antitremorine effect (central anticholinergic effect); format: in vivo; conditions: mice
Protocol: (§1) The compounds were administered intraperitoneally and the activities of the compounds were compared with those of Amitriptyline.

[2] = tested on: electroshock induced tonic extensor; experiment: Anticonvulsant activity: antagonism of electroshock induced tonic extensor; format: in vivo; conditions: Mus musculus, ip, mice, dose which prevents 50% of each response
Protocol: as §1

traction test = experiment: Muscle relaxant action: traction test (CNS depressant activity, neurological deficit); format: in vivo; conditions: Mus musculus, ip, mice
Protocol: as §1

[3] = tested on: spontaneous motor activity; experiment: Spontaneous motor activity depression (ANIMEX apparatus; CNS depressant activity); format: in vivo; conditions: mice
Protocol: as §1

CNCCCCOc1ccccc1C(C)c1ccccc1 (centres unmarked) [2-(4-methylaminobutoxy)diphenylmethylmethane hydrochloride]
antireserpine activity (in words) ([1]; mice, i.p., compared with Amitriptyline): antireserpine activity comparable to that of Amitriptyline | Antireserpine Activity in Mice, Relative Potency [1]: 0.66 | toxicity (in words) (mice): low toxicity | LD50 (in vivo): 140 mg/kg | ED50 (tremorine induced tremor; Mus musculus, ip, tremorine induced tremor): 20 mg/kg | anticholinergic action (in words) (tremorine induced tremor; i.p.): weak CNS depressant and anticholinergic action | ED50 [2]: 25 mg/kg | ED50 (traction test): > 60 mg/kg | ED50 ([3]; Mus musculus, ip, ANIMEX apparatus): 32 mg/kg | CNS depressant action (in words) ([3]; i.p., traction test and spontaneous motor activity): weak CNS depressant

CC(c1ccccc1)c1ccccc1OCCCCN(C)C (centres unmarked) [2-(4-dimethylaminobutoxy)diphenylmethylmethane hydrochloride]
Antireserpine Activity in Mice, Relative Potency [1]: 0.36 | LD50 (in vivo): 110 mg/kg

CC(c1ccccc1)c1ccccc1OCCCN(C)C (centres unmarked) [2-(3-dimethylaminopropoxy)diphenylmethylmethane]
Antireserpine Activity in Mice, Relative Potency [1]: 0.34 | LD50 (in vivo): 155 mg/kg
